Reference: patent US20090288225A1, “Novel Aromatic Acyltransferase Genes” (Aomori Prefecture, priority 2006, published 2009)
Each block holds one molecule with its values, some of them ahead of it.

Tests used:
[1] = test system: 35-70% ammonium sulfate precipitate fraction of the protein extracted from butterfly pea petals; test: Examination of substrates: acyltransferase activity with butterfly pea petal protein fraction; assay type: biochemical, butterfly pea (Clitoria ternatea); details: for acyltransferase activity as acyl donor: acyl receptor preternatin C5, specific activity order: sinapoyl, feruloyl, p-coumaroyl, caffeoyl glucose (highest first); for acyltransferase activity as acyl acceptor: acyl donor 1-O-p-coumaroyl-β-D-glucose
Experimental: (§1) A reaction solution (20 μl) containing 100 mM phosphate buffer (pH 6.5), 0.4 mM anthocyanin (4 μl), 0.5 mM 1-O-acyl-β-D-glucose (4 μl) and an enzyme solution (8 μl) was reacted at 30° C. The reaction was terminated by adding 4 μl of 1M aqueous hydrochloric acid solution. After addition of 24 μl of 5% acetonitrile containing 0.05 M TFA, the reaction solution was filtered with Millex-LH filter (Millipore) and then analyzed by HPLC by feeding a 10 μl aliquot.
(§2) HPLC analysis of anthocyanin acyltransferase reaction products were performed with Develosil ODS-UG-5 column (3.0 i.d.×250 mm; Nomura Chemical) at a column temperature of 35° C. Against an initial solvent that was 0.05 M trifluoroacetate (TFA)-containing 5% acetonitrile (MeCN) aqueous solution, 0.05 M TFA-containing 40% MeCN was added with a linear concentration gradient from 14 to 86% (20 min) and the reaction products were eluted at a flow rate of 0.5 ml/min. The reaction products were detected with PDA and their molecular weights were confirmed by LC-MS/MS.
In order to detect an enzyme activity of transferring an aromatic acyl group to the sugar residue of flavonoids using 1-O-acyl-β-D-glucose as an acyl donor, various types of 1-O-acyl-β-D-glucose and anthocyanin were examined. Briefly, enzyme activities were measured using 35-70% ammonium sulfate precipitate fraction of the protein extracted from butterfly pea petals as an enzyme solution, preternatin C5 as an acyl receptor, and various 1-O-acyl-β-D-glucoses as an acyl donor. […] Specific activity was higher in the following order: 1-O-sinapoyl-β-D-glucose, 1-O-feruloyl-β-D-glucose, 1-O-p-coumaroyl-β-D-glucose and 1-O-caffeoyl-β-D-glucose. Further, enzyme activities were measured using 1-O-p-coumaroyl-β-D-glucose as an acyl donor and various types of anthocyanin as an acyl acceptor.

[2] = Enzyme activity of recombinant CtSCPL1 protein expressed in Baculovirus-Sf9 insect cells; assay type: biochemical, butterfly pea (Clitoria ternatea)
Experimental: as §1, §2
Sf9 cells monolayer-cultured in complete Grace medium or Sf900II-SFM serum free medium (Gibco) in 6-well plates (3×10^6 cells) were infected with the recombinant virus at a multiplicity of infection (MOI) of 5-10. […] Enzyme reaction was performed using the thus concentrated protein solution, and the reaction product was analyzed by HPLC and LC-MS. […]

[3] = UDP-glucose:hydroxycinnamate 1-O-glucosyltransferase activity of recombinant proteins from E. coli; assay type: biochemical; details: against all four types of hydroxycinnamic acid used
Experimental: The transformed E. coli was shaking-cultured overnight in 3 ml of LB medium containing 50 μg/ml kanamycin and 34 μg/ml chloramphenicol. This culture broth (500 μl) was inoculated into LB medium (50 ml) and shaking-cultured until absorbance at 600 nm reached 0.4. Then, isopropyl-β-D-thiogalactoside (IPTG) was added to give a final concentration of 0.4 mM. The cells were shaking-cultured at 25° C. for 16 hr and then harvested by refrigerated centrifugation (8000 rpm, 4° C., 20 min). CtGT11-4 protein was partially purified from the cells using Ni-NTA mini-column according to the method recommended by the manufacturer. […]
For measuring enzyme activity, a 30 μl reaction solution containing 100 mM potassium phosphate buffer (pH 7.4), 30 pmole of UDP-glucose, 30 pmole of hydroxycinnamic acid and 15 μl of recombinant protein solution was reacted at 30° C. […] The enzyme reaction products were analyzed by reversed-phase high performance liquid chromatography (Shiseido NanoSpace system) using Develosil C30-UG-5 (1.5 i.d.×250 mm). […] The eluted materials were detected with a PDA detector, and the resultant data were analyzed to thereby quantitatively determine 1-O-acyl-β-D-glucose. […]
LeGT13-20 and LeGT13-30 genes were expressed using pET30Ek/LIC System (Novagen). […] Resultant several clones were analyzed to confirm the nucleotide sequences thereof, and then transformed into E. coli BL21-CodonPlus(DE3)-RP. […]

Molecule: O=C(/C=C/c1ccc(O)c(O)c1)O[C@@H]1O[C@H](CO)[C@@H](O)[C@H](O)[C@H]1O [1-O-caffeoyl-β-D-glucose]
acyltransferase activity as acyl donor [1]: acyltransferase activity was detected

Molecule: COc1cc(/C=C/C(=O)O[C@@H]2O[C@H](CO)[C@@H](O)[C@H](O)[C@H]2O)ccc1O [1-O-feruloyl-β-D-glucose]
acyltransferase activity as acyl donor [1]: acyltransferase activity was detected

Molecule: O=C(O)CC(=O)OC[C@H]1O[C@@H](Oc2cc3c(O)cc(O)cc3[o+]c2-c2cc(O[C@@H]3O[C@H](CO)[C@@H](O)[C@H](O)[C@H]3O)c(O)c(O[C@@H]3O[C@H](CO)[C@@H](O)[C@H](O)[C@H]3O)c2)[C@H](O)[C@@H](O)[C@@H]1O [ternatin C5, Delphinidin 3-(6-malonyl)glucoside 3′,5′-diglucoside]
acyltransferase activity as acyl acceptor [1]: acyltransferase activity was detected

B1: CtSCPL1: butterfly pea SCPL acyltransferase, 487 amino acid residues, SEQ ID NO: 2 (protein)
chain: MAAFSSTHSACGILLLPLVVSSLICFQLASCGTIVEFLPGFDGPLPFVLETGYVGVGEGEDVQVFYYFVESENNPNEDPLMLWLTGGPGCSAFSGLALEIGPLIFKREEYNGGLPNLILRPHSWTKVSSIIFVDLPVSTGFTYARTDAAAQRSDWTLVHHAHEFLRKWLIDHPKFLQNELYIGGDSYSGIPIPVIVQEISQENEKGIQPWINLQGYILGNAITTRREKGYSIPFAHGMALISDELYESLRKNCKGEYLNVDPENVLCSRDIDSYSKATSRISFAHILERTCNSGDIKTSLRRSTIQRHHTKKFLNTNLKLPPLTCRTYANFQCGLWANDDNVRSALHIHKGSIGEWHRCSIRLPFTSDIPNSFEYHVNLSRKGYYRSLIYSGDHDMMVPFLGTQAWIRSLNYSIVDDWRPWNTNGQVAGYTRTYSNRMTYATIKGGGHTAPEFKPEECFAMYSRWISKRPLYENNTMSSYTNLASIL
modifications: Clitoria ternatea cv. Double Blue; Amino acid sequence of 1-O-acyl-Beta-D-glucose anthocyanin-O-acyltansferase
3′AT activity ([2]; substrates preternatin C5 or delphinidin 3-(6-malonyl)glucoside-3′-glucoside and 1-O-feruloyl-β-D-glucose): 3′AT activity was confirmed
3′AT activity ([2]; substrates ternatin C5 and 1-O-p-coumaroyl-β-D-glucose): 3′AT activity was also recognized

B2: LeGT13-20: lobelia 1-O-acyl-β-D-glucose synthase, 486 amino acid residues, SEQ ID NO: 16 (protein)
chain: MGSLQGTTTVENLTHVFLVSFPGQGHVNPLLRLGKILAFKGLLVTFSAPEMVGEIIKGANKYISDDELTPIGDGMIRFEFFSDGLGNTKEDNSLRGNMDLYMPQLATFAKKSLSEILIKHEKHGRPVACLINNPFIPWISELAEEFNIPSAVLWVQSCASFSAYYHYHHGLVPFPTENEPERDVQLPNMPLLKYDEIPGFLLPSSPYGFLRRAILGQFKLLSKPICILVESFQELENDCINYLSTLCPIKPIGPLFSNPSVRNGSSIRGDFMKVEDCIDWLNTRADSSVVYVSFGSIVYVKQEQITEIARGLADSGLSFLWAFKQPGIDMGLTPPSLPDGFLEEVKGRGKVVEWCSQEAVLSHPAVSCFMSHCGWNSTMEALSSGVPVAAFPIWGDQVTDAKFLVDEFKVGIRMCRGEADINKKVVTREEIARCLLAATSGPKAEELKRNALKWKKAAADSVGAGGSSDRNLEEFVGSIRKDVVGH
modifications: Lobelia erinus cv.Riviera Midnight Blue; Amino acid sequence of UDP-glucose hydroxycinnamic acid 1-O-glucosyltransferase
glucosyltransferase activity [3]: glucosyltransferase activity was confirmed

The remaining lines, values ahead:

acyltransferase activity as acyl donor [1]: acyltransferase activity was detected
Molecule: O=C(/C=C/c1ccc(O)cc1)O[C@@H]1O[C@H](CO)[C@@H](O)[C@H](O)[C@H]1O [1-O-p-coumaroyl-β-D-glucose]

acyltransferase activity as acyl donor [1]: acyltransferase activity was detected
Molecule: COc1cc(/C=C/C(=O)O[C@@H]2O[C@H](CO)[C@@H](O)[C@H](O)[C@H]2O)cc(OC)c1O [1-O-sinapoyl-β-D-glucose]

acyltransferase activity as acyl acceptor [1]: acyltransferase activity was detected
Molecule: O=C(O)CC(=O)OCC1OC(Oc2cc3c(O)cc(O)cc3[o+]c2-c2cc(O)c(O)c(OC3OC(CO)C(O)C(O)C3O)c2)C(O)C(O)C1O (stereo not shown) [delphinidin 3-(6-malonyl)glucoside-3′-glucoside]

acyltransferase activity as acyl acceptor [1]: acyltransferase activity was detected
Molecule: OC[C@H]1O[C@@H](Oc2cc3c(O)cc(O)cc3[o+]c2-c2cc(O[C@@H]3O[C@H](CO)[C@@H](O)[C@H](O)[C@H]3O)c(O)c(O[C@@H]3O[C@H](CO)[C@@H](O)[C@H](O)[C@H]3O)c2)[C@H](O)[C@@H](O)[C@@H]1O [preternatin C5, delphinidin 3,3′,5′-triglucoside]
